Assay results from patent publication US20250082614A1, “METHODS OF USING RAD51 INHIBITORS FOR TREATMENT OF PANCREATIC CANCER” (Cyteir Therapeutics, Inc., priority 2019, published 2025).
Where two headings read alike, the source gives them in different places.

Assay: Bi-directional Caco-2 permeability
Assay type: in vitro ADME
Conditions: human; for Papp A→B at 90 min / Papp B→A at 90 min: Caco-2, 37° C., up to 90 minutes; for Papp A→B at 90 min: apical to basolateral, read-out: AB Papp (cm/sec × 10^6); for Papp B→A at 90 min: basolateral to apical, read-out: BA Papp (cm/sec × 10^6); for efflux ratio at 90 min: Caco-2 efflux ratio, read-out: BA/AB Ratio
Experimental: Bi-directional Caco-2 permeability was assayed. Caco-2 cells were seeded onto permeable polycarbonate supports and allowed to differentiate for about 3 weeks prior to being used in the assays. The cells were then exposed to the compounds from either the apical or basolateral sides and incubated at 37° C. for up to 90 minutes under light agitation. Compound transport was then measured using LC/MS/MS analysis at 30, 60, and 90 minutes.

[1] = Caco-2, apical to basolateral, read-out: AB Recovery %
[2] = Caco-2, basolateral to apical, read-out: BA Recovery %

| Compound | recovery at 90 min [1] [%] | recovery at 90 min [2] [%] | Papp A→B at 90 min [×10⁻⁶ cm/s] | Papp B→A at 90 min [×10⁻⁶ cm/s] | efflux ratio at 90 min |
| --- | --- | --- | --- | --- | --- |
| CC(C)OC(=O)N[C@@H]1CCC(c2ncc(-c3ccc(NC(=O)NCc4ccccc4)cc3S(=O)(=O)NC(C)(C)C)s2)OC1 (mixture of isomers) [Ex. 59, trans-isopropyl N-[6-[5-[4-(benzylcarbamoylamino)-2-(tert-butylsulfamoyl)phenyl]thiazol-2-yl]tetrahydropyran-3-yl]carbamate] | 61.5 | 91.5 | 3.1 | 15 | 4.8 |
| CC(C)OC(=O)Nc1ccc(-c2cnc(C3CC[C@@H](NC(=O)OC(C)C)CO3)s2)c(S(=O)(=O)NC(C)(C)C)c1 (mixture of isomers) [Ex. 60, trans-isopropyl N-[6-[5-[2-(tert-butylsulfamoyl)-4-(isopropoxycarbonylamino)phenyl]thiazol-2-yl]tetrahydropyran-3-yl]carbamate] | 59.8 | 90.8 | 15.6 | 13.3 | 0.9 |
| CC(C)NC(=O)OC1CCC(c2ncc(-c3ccc(NC(=O)NCc4ccccc4)cc3S(=O)(=O)NC(C)(C)C)s2)CC1 (stereo not drawn) [Ex. 21] |  |  | 3.6 | 10.7 | 3 |
| CC(C)OC(=O)N[C@H]1CC[C@H](c2ncc(-c3ccc(NC(=O)NCc4ccncc4)cc3S(=O)(=O)NC(C)(C)C)s2)CC1 [Ex. 22, trans-isopropyl N-[4-[5-[2-(tert-butylsulfamoyl)-4-(4-pyridylmethylcarbamoylamino)phenyl]thiazol-2-yl]cyclohexyl]carbamate] | 83.1 | 89 | 1.1 | 21 | 18.7 |
| CC(C)OC(=O)NC1CCC(c2ncc(-c3ccc(NC(=O)NCc4cccc(F)c4)cc3S(=O)(=O)NC(C)(C)C)s2)CC1 (stereo not drawn) [Ex. 27, isopropyl ((1r,4r)-4-(5-(2-(N-(tert-butyl)sulfamoyl)-4-(3-(3-fluorobenzyl)ureido)phenyl)thiazol-2-yl)cyclohexyl)carbamate] |  |  | 0.7 | 0.5 | 0.7 |
| CC(C)OC(=O)NC1CCC(c2ncc(-c3ccc(NC(=O)NCc4ccccc4F)cc3S(=O)(=O)NC(C)(C)C)s2)CC1 (stereo not drawn) [Ex. 28, isopropyl ((1r,4r)-4-(5-(2-(N-(tert-butyl)sulfamoyl)-4-(3-(2-fluorobenzyl)ureido)phenyl)thiazol-2-yl)cyclohexyl)carbamate] |  |  | 1.9 | 3.3 | 1.7 |
| CC(C)OC(=O)NC1CCC(c2ncc(-c3ccc(NC(=O)N[C@H](C)c4ccccn4)cc3S(=O)(=O)NC(C)(C)C)s2)CC1 (stereo partly drawn) [Ex. 30, isopropyl ((1R,4r)-4-(5-(2-(N-(tert-butyl)sulfamoyl)-4-(3-((R)-1-(pyridin-2-yl)ethyl)ureido)phenyl)thiazol-2-yl)cyclohexyl)carbamate] |  |  | 11.5 | 15.7 | 1.4 |
| CC(C)OC(=O)N[C@@H]1CCC(c2ncc(-c3ccc(NC(=O)NCc4ccccc4)cc3S(=O)(=O)NC(C)(C)C)s2)NC1 (stereo partly drawn) [Ex. 64] |  |  | 2.2 | 27.4 | 12.5 |
